The results in this text go back to ChEMBL document CHEMBL5543131, “Discovery of Highly Potent Solute Carrier 13 Member 5 (SLC13A5) Inhibitors for the Treatment of Hyperlipidemia” (J Med Chem, 2024).

The target of series [1] is Na(+)/citrate cotransporter (Homo sapiens, UniProt Q86YT5). Description: Inhibition of human SLC13A5 transfected in HEK293T cells incubated for 30 mins by D4-citrate uptake assay. Type of series: cell-based.
Series [2] can be described thus: Cmax in Sprague-Dawley rat at 50 mg/kg, po measured after 24 hrs by LC-MS/MS analysis. The conditions noted are these: in vivo. Type of series: ADME, organism-based.
Series [3] is described as follows: AUC (0 to infinity) in Sprague-Dawley rat at 50 mg/kg, po measured after 24 hrs by LC-MS/MS analysis. Type of series: ADME, organism-based. Conditions: in vivo.
Series [4] in a line: Half-life in Sprague-Dawley rat at 50 mg/kg, po measured after 24 hrs by LC-MS/MS analysis. Type of series: ADME, organism-based. Conditions: in vivo.
Series [5] can be described thus: Volume of distribution in Sprague-Dawley rat at 50 mg/kg, po measured after 24 hrs by LC-MS/MS analysis. Type of series: ADME, organism-based. The conditions noted are these: in vivo.
Series [6] can be described thus: Oral bioavailability in Sprague-Dawley rat at 50 mg/kg measured after 24 hrs by LC-MS/MS analysis. The conditions noted are these: in vivo. Type of series: ADME, organism-based.
Series [7] in a line: AUC (0 to infinity) in Sprague-Dawley rat at 5 mg/kg, iv measured after 24 hrs by LC-MS/MS analysis. Type of series: ADME, organism-based. Conditions: in vivo.
Series [8] in a line: Half-life in Sprague-Dawley rat at 5 mg/kg, iv measured after 24 hrs by LC-MS/MS analysis. Type of series: ADME, organism-based. The conditions noted are these: in vivo.
The nature of series [9]: Volume of distribution in Sprague-Dawley rat at 5 mg/kg, iv measured after 24 hrs by LC-MS/MS analysis. Type of series: ADME, organism-based. Conditions: in vivo.
Series [10] can be described thus: Clearance in Sprague-Dawley rat at 5 mg/kg, iv measured after 24 hrs by LC-MS/MS analysis. Type of series: ADME, organism-based. The conditions noted are these: in vivo.
The nature of series [11]: Clearance in Sprague-Dawley rat at 50 mg/kg, po measured after 24 hrs by LC-MS/MS analysis. Type of series: ADME, organism-based. The conditions noted are these: in vivo.
The nature of series [12]: Metabolic stability in human plasma assessed as compound remaining measured after 2 hrs by LC-MS/MS analysis. Type of series: ADME, cell-free. Conditions: read-out: Stability.
Series [13] can be described thus: Metabolic stability in rat liver microsome assessed as compound remaining measured after 2 hrs in presence of NADPH by LC-MS/MS analysis. Type of series: ADME. Conditions: liver microsomes, read-out: Stability. (Liver microsomes are vesicles of endoplasmic reticulum, rich in cytochrome P450 enzymes.)
A short description of series [14]: Metabolic stability in human liver microsome assessed as compound remaining measured after 2 hrs in presence of NADPH by LC-MS/MS analysis. Type of series: ADME. The conditions noted are these: microsomes.
Series [15] can be described thus: Drug accumulation in Sprague-Dawley rat liver at 5 mg/kg, po measured after 2 hrs by LC-MS/MS analysis. Type of series: ADME, organism-based. Conditions: in vivo.
Series [16] can be described thus: Drug accumulation in Sprague-Dawley rat prostate gland at 5 mg/kg, po measured after 2 hrs by LC-MS/MS analysis. Type of series: ADME, organism-based. Conditions: in vivo.
A short description of series [17]: Drug accumulation in Sprague-Dawley rat brain at 5 mg/kg, po measured after 2 hrs by LC-MS/MS analysis. Type of series: ADME, organism-based. The conditions noted are these: in vivo.
The subject of series [18] is HepG2. The series can be described thus: Cytotoxicity against human HepG2 cells. Type of series: toxicity, cell-based.
The test system of series [19] is Huh-7. The series can be described thus: Cytotoxicity against human Huh-7 cells. Type of series: toxicity, cell-based.
For series [20], the system named is HEK-293T. The series can be described thus: Cytotoxicity against HEK293T cells. Type of series: toxicity, cell-based. Conditions: human.
The nature of series [21]: Tmax in Sprague-Dawley rat at 50 mg/kg, po measured after 24 hrs by LC-MS/MS analysis. Type of series: ADME, organism-based. The conditions noted are these: in vivo.
Series [22] in a line: Toxicity in C57BL/6J mouse assessed as animal death at 100 mg/kg. Type of series: organism-based. The conditions noted are these: in vivo.
Series [23] in a line: Acute toxicity in C57BL/6J mouse at 50 to 300 mg/kg measured after 7 days. Type of series: organism-based. The conditions noted are these: in vivo, 168 h, dose 50-300 mg/kg, time 7 day.

Each structure is given as a SMILES string. A value given as a limit tells only on which side of the number the result lay.

Chain of Na(+)/citrate cotransporter (Q86YT5 whole entry): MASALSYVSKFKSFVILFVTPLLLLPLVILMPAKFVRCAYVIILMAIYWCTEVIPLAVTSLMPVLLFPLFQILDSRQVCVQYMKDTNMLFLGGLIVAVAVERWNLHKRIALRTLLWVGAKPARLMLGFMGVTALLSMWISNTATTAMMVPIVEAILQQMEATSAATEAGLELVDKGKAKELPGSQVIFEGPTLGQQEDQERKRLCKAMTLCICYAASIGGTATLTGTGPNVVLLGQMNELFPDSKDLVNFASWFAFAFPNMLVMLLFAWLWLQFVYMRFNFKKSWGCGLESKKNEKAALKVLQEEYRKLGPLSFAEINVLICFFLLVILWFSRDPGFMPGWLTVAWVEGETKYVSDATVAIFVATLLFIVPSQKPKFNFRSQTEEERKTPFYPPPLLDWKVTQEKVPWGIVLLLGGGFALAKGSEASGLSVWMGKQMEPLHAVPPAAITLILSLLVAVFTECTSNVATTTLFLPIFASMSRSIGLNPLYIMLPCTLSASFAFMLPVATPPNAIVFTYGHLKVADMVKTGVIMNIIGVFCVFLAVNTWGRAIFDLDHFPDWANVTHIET

Take `O=C(O)CC(O)(CCc1ccc(N2CCOCC2)cc1)C(=O)O` (stereo unspecified): the IC50 in series [1] was determined as 860 nM.

`CC(C)Oc1cccc(-c2ccc(CCC(O)(CC(=O)O)C(=O)O)cc2)c1` (stereo unspecified) registered an IC50 in series [1] of 440 nM.

`O=C(O)CC(O)(CCc1ccc(-c2cccc(OC(F)(F)F)c2)cc1)C(=O)O` (stereo unspecified) gave an IC50 in series [1] of 190 nM.

`CC(C)(C)c1ccc(CC[C@@](O)(CC(=O)O)C(=O)O)cc1` came in with a peak concentration (Cmax) in series [2] of 1.36 µg/mL. Moreover, the AUC(0-inf) in [3] was determined as 10600 ng·h/mL; in [7] it was 40400 ng·h/mL. Also, the figures for the half-life in [4] and in series [8] were 12.4 h and 2.61 h, respectively. Besides, the Vd stood at 83.96 L/kg in [5] and 0.69 L/kg in [9]. The same compound registered a bioavailability in series [6] of 1.83%. In addition, the clearance in series [10] was 2 mL/min/kg. Further, the CL/F in series [11] was 80.8 mL/min/kg.

Regarding `Cn1nccc1-c1ccc(CCC(O)(CC(=O)O)C(=O)O)cc1` (stereo unspecified), inhibition in [1] was half-maximal at 1970 nM (IC50).

On to `O=C(O)CC(O)(CCc1ccc(-c2ccn[nH]2)cc1)C(=O)O` (stereo unspecified), for which the 50% inhibitory concentration (IC50) in series [1] stood at 1180 nM.

`COc1cc(-c2ccc(CCC(O)(CC(=O)O)C(=O)O)cc2)ccn1` (stereo unspecified): the half-inhibitory concentration (IC50) in series [1] came out at 860 nM.

In series [1], `CCn1nccc1-c1ccc(CCC(O)(CC(=O)O)C(=O)O)cc1` (stereo unspecified) gave an IC50 of 130 nM. The remaining at 2 h in series [12] and in series [13] was above 60% in each case.

On to `COc1cccc(-c2ccc(CCC(O)(CC(=O)O)C(=O)O)cc2)c1` (stereo unspecified), for which, in [1], the IC50 is 340 nM.

`O=C(O)CC(O)(CCc1ccc(-c2ccc3c(c2)OCO3)cc1)C(=O)O` (stereo unspecified) yielded an IC50 in series [1] of 110 nM.

Turning to `CCCOc1cccc(-c2ccc(CCC(O)(CC(=O)O)C(=O)O)cc2)c1` (stereo unspecified), in [1], the IC50 amounted to 270 nM. Against the preceding compound, the IC50 is about 2.5-fold higher.

In [1], `CCOc1cccc(-c2ccc(CCC(O)(CC(=O)O)C(=O)O)cc2)c1` (stereo unspecified) showed an IC50 of 310 nM. This IC50 and that of the compound before are within 1.5-fold of each other.

For `COc1ccccc1-c1ccc(CCC(O)(CC(=O)O)C(=O)O)cc1` (stereo unspecified), the IC50 in [1] was found to be 290 nM.

For `O=C(O)CC(O)(CCc1ccc(-c2ccccc2C(F)(F)F)cc1)C(=O)O` (stereo unspecified), in series [1], the IC50 is 210 nM.

In series [1], `O=C(O)CC(O)(CCc1nc2ccccc2s1)C(=O)O` (stereo unspecified) gave a half-maximal inhibitory concentration (IC50) of 160 nM. The remaining at 2 h in [12] and in series [13] was above 60% throughout.

For `O=C(O)CC(O)(CCc1ccc(-c2cccc3c2NCCC3)cc1)C(=O)O` (stereo unspecified), the IC50 in series [1] came to 350 nM. In other words, the sub-micromolar range.

Consider `O=C(O)CC(O)(CCc1ccc(-c2ccccc2)cc1)C(=O)O` (stereo unspecified), for which, in series [1], the IC50 was 67 nM. Moreover, the remaining at 2 h in series [12] and in series [13] was above 60% throughout. Further, the Stability entry in series [14] is on record as “Stable”. Besides, the values for the Drug uptake entry in series [15], in [16] and in series [17] were “Active”, “Active” and “Not Active”, respectively. Also, the Activity entry in series [18], in series [19], in [20], in series [22] and in series [23] was “Non-Toxic” each time. Besides, in series [2], the Cmax worked out at 288 µg/mL. Further, the AUC(0-inf) in series [3] was determined as 705000 ng·h/mL; in series [7], 145000 ng·h/mL. Besides, the half-life was 1.09 h in series [4] and 0.69 h in series [8]. The Vd came out at 0.11 L/kg in [5] and 0.03 L/kg in series [9]. Moreover, the bioavailability in [6] is 48.7%. Also, in series [10], the clearance was 0.667 mL/min/kg. For the same compound, the CL/F in series [11] was 1.17 mL/min/kg. Besides, in series [21], the Tmax came to 0.76 h.

`O=C(O)CC(O)(CCc1ccc2ccccc2c1)C(=O)O` (stereo unspecified) yielded an IC50 in series [1] of 73 nM. Besides, the remaining at 2 h in [12] and in series [13] was above 60% in each case.

On to `O=C(O)CC(O)(CCc1ccc(-c2cccc(C(F)(F)F)c2)cc1)C(=O)O` (stereo unspecified), for which 150 nM corresponded to half-maximal inhibition in series [1] (IC50). In other words, the sub-micromolar range.

The IC50 is the concentration needed to halve the response being measured. Lower therefore signals greater potency. The term Cmax denotes the maximum level reached in the sampled fluid or tissue. The term AUC(0-inf) denotes the area under the concentration-time curve extrapolated to infinity. As a reminder, the half-life is the time needed for the level to fall by half in the phase considered. Low values mean fast loss, high ones slow loss. Broadly, the bioavailability is the share of a dose that reaches the circulation, judged against a reference dose that is usually intravenous. The low end stands for little systemic uptake, the high end for much systemic uptake. A word on the clearance: it is a measure of how efficiently the substance is removed, as volume per time. A low value points to a low capacity for elimination. The CL/F is the apparent clearance, not corrected for the fraction that reaches the circulation. Broadly, the Tmax is the time at which the peak concentration occurs.
